Consider 2 compounds from patent publication US6270799A, “Medicament formulation with a controlled release of an active agent” (Bayer Aktiengesellscahft, priority 1997, dated 2001).

Series [1] is described as follows: water solubility. Particulars: compound I and/or its salts and/or hydrates. The format is physicochemical.
For series [2], the system named is gram-negative and gram-positive bacteria. Particulars: against gram-negative and gram-positive bacteria; relative to sparfloxacin and ciprofloxacin; Drugs of the Future 1997, 22 (2): 109/113; cited from earlier work.
A short description of series [3]: absorption behaviour in the lower sections of the intestine. Particulars: in contrast to ciprofloxacin. The format is in vivo. The source says:
It was therefore the object of the present invention to develop a drug formulation of the compound I and pharmaceutically tolerable salts thereof and/or their hydrates which meets the requirements described above. […] Only this surprising absorption behaviour of moxifloxacin, which is different from known quinolonecarboxylic acid antibiotics, opens up any possibility of developing a retard formulation of moxifloxacin.

Usually solubility stands for the dissolved amount per volume that the medium holds. Turning to `COc1c(N2C[C@@H]3CCCN[C@@H]3C2)c(F)cc2c(=O)c(C(=O)O)cn(C3CC3)c12` [compound I, 1-cyclopropyl-7-([S,S]-2,8-diazabicyclo[4.3. 0]non-8-yl)-6-fluoro-1,4-dihydro-8-methoxy-4-oxo-3-quino-lonecarboxylic acid], the solubility in series [1] is approximately 24 mg/mL. For the same compound, the antibacterial action entry in series [2] is “frequently significantly better than that of sparfloxacin and ciprofloxacin”.
Consider `COc1c(N2C[C@@H]3CCCN[C@@H]3C2)c(F)cc2c(=O)c(C(=O)O)cn(C3CC3)c12` [compound II], for which the “absorption in the lower sections of the intestine (colon, rectum)” value in series [3] was “also absorbed in the lower sections of the intestine (colon, rectum)”.
